From patent publication KR20160024853A, “당뇨병 치료를 위한 주사형 나노-네트워크 겔” (메사추세츠 인스티튜트 오브 테크놀로지, priority 2013, dated 2016)

Experiments:
[1] = system: STZ-induced diabetic mice (male C57B6); test: Blood glucose control in STZ-induced diabetic mice after one subcutaneous injection; format: in vivo, mouse; settings: after administration
[2] = Plasma human insulin in STZ-induced diabetic mice (human insulin ELISA); settings: mouse, in vivo

**Q.** Which “time when BG rose to the hyperglycemic range” value [1] does the source give for “인슐린 용액: human recombinant insulin solution (zinc salt, Invitrogen)” here?
**A.** Its value is “둘째 날”.

**Q.** And the “plasma insulin concentration on the day after administration” value [2]?
**A.** Its value is “급격한 감소”.
